Experimental data: ChEMBL document CHEMBL5724914, “Linking interpersonal differences in gut microbiota composition and drug biotransformation activity” (2024)

Assays:
[1] = The drug is tested on Z-019 corresponding to rat gut metagenome with ENA study accession number: PRJEB37062 and ENA sample accession number: ERS12561818 for biotransformation under anaerobic condition. The drug concentrations were measured over 9 timepoints collected between 0 and 24 hours of incubation by liquid-chromatography-coupled mass spectrometry (LC–MS); details: 2 µM
[2] = The drug is tested on Z-017 corresponding to mouse gut metagenome with ENA study accession number: PRJEB37062 and ENA sample accession number: ERS12561816 for biotransformation under anaerobic condition. The drug concentrations were measured over 9 timepoints collected between 0 and 24 hours of incubation by liquid-chromatography-coupled mass spectrometry (LC–MS); details: 2 µM
[3] = The drug is tested on Z-016 corresponding to mouse gut metagenome with ENA study accession number: PRJEB37062 and ENA sample accession number: ERS12561815 for biotransformation under anaerobic condition. The drug concentrations were measured over 9 timepoints collected between 0 and 24 hours of incubation by liquid-chromatography-coupled mass spectrometry (LC–MS); details: 2 µM
[4] = The drug is tested on Z-009 corresponding to pig gut metagenome with ENA study accession number: PRJEB37062 and ENA sample accession number: ERS12561809 for biotransformation under anaerobic condition. The drug concentrations were measured over 9 timepoints collected between 0 and 24 hours of incubation by liquid-chromatography-coupled mass spectrometry (LC–MS); details: 2 µM
[5] = The drug is tested on Z-008 corresponding to metagenome with ENA study accession number: PRJEB37062 and ENA sample accession number: ERS12561808 for biotransformation under anaerobic condition. The drug concentrations were measured over 9 timepoints collected between 0 and 24 hours of incubation by liquid-chromatography-coupled mass spectrometry (LC–MS); details: 2 µM
[6] = The drug is tested on Z-007 corresponding to rat gut metagenome with ENA study accession number: PRJEB37062 and ENA sample accession number: ERS12561807 for biotransformation under anaerobic condition. The drug concentrations were measured over 9 timepoints collected between 0 and 24 hours of incubation by liquid-chromatography-coupled mass spectrometry (LC–MS); details: 2 µM
[7] = The drug is tested on Z-005 corresponding to metagenome with ENA study accession number: PRJEB37062 and ENA sample accession number: ERS12561805 for biotransformation under anaerobic condition. The drug concentrations were measured over 9 timepoints collected between 0 and 24 hours of incubation by liquid-chromatography-coupled mass spectrometry (LC–MS); details: 2 µM
[8] = The drug is tested on WLS-350 corresponding to human gut metagenome with ENA study accession number: PRJEB37062 and ENA sample accession number: ERS12561789 for biotransformation under anaerobic condition. The drug concentrations were measured over 9 timepoints collected between 0 and 24 hours of incubation by liquid-chromatography-coupled mass spectrometry (LC–MS); details: 2 µM
[9] = The drug is tested on WLS-098 corresponding to human gut metagenome with ENA study accession number: PRJEB37062 and ENA sample accession number: ERS12561754 for biotransformation under anaerobic condition. The drug concentrations were measured over 9 timepoints collected between 0 and 24 hours of incubation by liquid-chromatography-coupled mass spectrometry (LC–MS); details: 2 µM
[10] = The drug is tested on WLS-090 corresponding to human gut metagenome with ENA study accession number: PRJEB37062 and ENA sample accession number: ERS12561753 for biotransformation under anaerobic condition. The drug concentrations were measured over 9 timepoints collected between 0 and 24 hours of incubation by liquid-chromatography-coupled mass spectrometry (LC–MS); details: 2 µM
[11] = The drug is tested on WLS-052 corresponding to human gut metagenome with ENA study accession number: PRJEB37062 and ENA sample accession number: ERS12561747 for biotransformation under anaerobic condition. The drug concentrations were measured over 9 timepoints collected between 0 and 24 hours of incubation by liquid-chromatography-coupled mass spectrometry (LC–MS); details: 2 µM
[12] = The drug is tested on WLS-010 corresponding to human gut metagenome with ENA study accession number: PRJEB37062 and ENA sample accession number: ERS12561743 for biotransformation under anaerobic condition. The drug concentrations were measured over 9 timepoints collected between 0 and 24 hours of incubation by liquid-chromatography-coupled mass spectrometry (LC–MS); details: 2 µM
[13] = human gut metagenome, 24 h, 2 µM
[14] = human gut metagenome, 24 h, 2 µM; remark: listed apart in the source
[15] = human gut metagenome, 24 h, 2 µM; remark: listed apart in the source
[16] = human gut metagenome, 24 h, 2 µM; remark: listed apart in the source
[17] = human gut metagenome, 24 h, 2 µM; remark: listed apart in the source
[18] = human gut metagenome, 24 h, 2 µM; remark: listed apart in the source
[19] = human gut metagenome, 24 h, 2 µM; remark: listed apart in the source
[20] = human gut metagenome, 24 h, 2 µM; remark: listed apart in the source
Further: call rule not given here.

CC(C)c1c(CN(C)C(C)Cc2ccccc2)n(C)n(-c2ccccc2)c1=O (stereo not given) [FAMPROFAZONE]
Bacterial Biotransformation [1]: Compound NOT metabolized
Bacterial Biotransformation [2]: Compound NOT metabolized
Bacterial Biotransformation [3]: Compound metabolized
Bacterial Biotransformation [4]: Compound metabolized
Bacterial Biotransformation [5]: Compound metabolized
Bacterial Biotransformation [6]: Compound metabolized
Bacterial Biotransformation [7]: Compound metabolized
Bacterial Biotransformation [8]: Compound metabolized
Bacterial Biotransformation [9]: Compound metabolized
Bacterial Biotransformation [10]: Compound metabolized
Bacterial Biotransformation [11]: Compound metabolized
Bacterial Biotransformation [12]: Compound metabolized
Bacterial Biotransformation [13]: Compound metabolized
Bacterial Biotransformation [14]: Compound metabolized
Bacterial Biotransformation [15]: Compound metabolized
Bacterial Biotransformation [16]: Compound metabolized
Bacterial Biotransformation [17]: Compound metabolized
Bacterial Biotransformation [18]: Compound metabolized
Bacterial Biotransformation [19]: Compound metabolized
Bacterial Biotransformation [20]: Compound metabolized

N=C(N)NC(=O)Cc1c(Cl)cccc1Cl [GUANFACINE]
Bacterial Biotransformation [1]: Compound NOT metabolized
Bacterial Biotransformation [2]: Compound NOT metabolized
Bacterial Biotransformation [3]: Compound NOT metabolized
Bacterial Biotransformation [4]: Compound NOT metabolized
Bacterial Biotransformation [5]: Compound NOT metabolized
Bacterial Biotransformation [6]: Compound NOT metabolized
Bacterial Biotransformation [7]: Compound NOT metabolized
Bacterial Biotransformation [8]: Compound NOT metabolized
Bacterial Biotransformation [9]: Compound NOT metabolized
Bacterial Biotransformation [10]: Compound NOT metabolized
Bacterial Biotransformation [11]: Compound NOT metabolized
Bacterial Biotransformation [12]: Compound NOT metabolized
Bacterial Biotransformation [13]: Compound NOT metabolized
Bacterial Biotransformation [14]: Compound NOT metabolized
Bacterial Biotransformation [15]: Compound NOT metabolized
Bacterial Biotransformation [16]: Compound NOT metabolized
Bacterial Biotransformation [17]: Compound NOT metabolized
Bacterial Biotransformation [18]: Compound NOT metabolized
Bacterial Biotransformation [19]: Compound NOT metabolized
Bacterial Biotransformation [20]: Compound NOT metabolized

Nc1nc(N)nc(-c2cc(Cl)ccc2Cl)n1.O=C(O)/C=C\C(=O)O [IRSOGLADINE MALEATE]
Bacterial Biotransformation [1]: Compound NOT metabolized
Bacterial Biotransformation [2]: Compound NOT metabolized
Bacterial Biotransformation [3]: Compound NOT metabolized
Bacterial Biotransformation [4]: Compound NOT metabolized
Bacterial Biotransformation [5]: Compound NOT metabolized
Bacterial Biotransformation [6]: Compound NOT metabolized
Bacterial Biotransformation [7]: Compound NOT metabolized
Bacterial Biotransformation [8]: Compound NOT metabolized
Bacterial Biotransformation [9]: Compound metabolized
Bacterial Biotransformation [10]: Compound NOT metabolized
Bacterial Biotransformation [11]: Compound NOT metabolized
Bacterial Biotransformation [12]: Compound NOT metabolized
Bacterial Biotransformation [13]: Compound NOT metabolized
Bacterial Biotransformation [14]: Compound NOT metabolized
Bacterial Biotransformation [15]: Compound NOT metabolized
Bacterial Biotransformation [16]: Compound NOT metabolized
Bacterial Biotransformation [17]: Compound NOT metabolized
Bacterial Biotransformation [18]: Compound NOT metabolized
Bacterial Biotransformation [19]: Compound NOT metabolized
Bacterial Biotransformation [20]: Compound NOT metabolized

CN1CCC(=C2c3ccccc3CC(=O)c3sccc32)CC1.O=C(O)/C=C/C(=O)O [KETOTIFEN FUMARATE]
Bacterial Biotransformation [1]: Compound NOT metabolized
Bacterial Biotransformation [2]: Compound NOT metabolized
Bacterial Biotransformation [3]: Compound NOT metabolized
Bacterial Biotransformation [4]: Compound metabolized
Bacterial Biotransformation [5]: Compound NOT metabolized
Bacterial Biotransformation [6]: Compound NOT metabolized
Bacterial Biotransformation [7]: Compound NOT metabolized
Bacterial Biotransformation [8]: Compound NOT metabolized
Bacterial Biotransformation [9]: Compound metabolized
Bacterial Biotransformation [10]: Compound metabolized
Bacterial Biotransformation [11]: Compound NOT metabolized
Bacterial Biotransformation [12]: Compound NOT metabolized
Bacterial Biotransformation [13]: Compound NOT metabolized
Bacterial Biotransformation [14]: Compound NOT metabolized
Bacterial Biotransformation [15]: Compound NOT metabolized
Bacterial Biotransformation [16]: Compound metabolized
Bacterial Biotransformation [17]: Compound metabolized
Bacterial Biotransformation [18]: Compound metabolized
Bacterial Biotransformation [19]: Compound NOT metabolized
Bacterial Biotransformation [20]: Compound metabolized

CC[C@H](C)C(=O)O[C@H]1CCC=C2C=C[C@H](C)[C@H](CC[C@@H]3C[C@@H](O)CC(=O)O3)[C@H]21 [MEVASTATIN]
Bacterial Biotransformation [1]: Compound NOT metabolized
Bacterial Biotransformation [2]: Compound metabolized
Bacterial Biotransformation [3]: Compound NOT metabolized
Bacterial Biotransformation [4]: Compound NOT metabolized
Bacterial Biotransformation [5]: Compound NOT metabolized
Bacterial Biotransformation [6]: Compound NOT metabolized
Bacterial Biotransformation [7]: Compound NOT metabolized
Bacterial Biotransformation [8]: Compound NOT metabolized
Bacterial Biotransformation [9]: Compound NOT metabolized
Bacterial Biotransformation [10]: Compound metabolized
Bacterial Biotransformation [11]: Compound metabolized
Bacterial Biotransformation [12]: Compound metabolized
Bacterial Biotransformation [13]: Compound NOT metabolized
Bacterial Biotransformation [14]: Compound metabolized
Bacterial Biotransformation [15]: Compound NOT metabolized
Bacterial Biotransformation [16]: Compound metabolized
Bacterial Biotransformation [17]: Compound NOT metabolized
Bacterial Biotransformation [18]: Compound metabolized
Bacterial Biotransformation [19]: Compound NOT metabolized
Bacterial Biotransformation [20]: Compound metabolized
